This note sets out measurements from patent US10633375B2, “Oxopicolinamide derivative, preparation method therefor and pharmaceutical use thereof” (Jiangsu Hengrui Medicine Co., Ltd., priority 2016, dated 2020).

Where “and” joins values, the source holds several entries; their conditions need not be identical. Equal values may be shown once.

One data set deals with human blood. As to the kind of experiment: In vitro anticoagulant effect on human blood (APTT, CT2). As to conditions: for CT2, concentration doubling APTT: concentration corresponding to 2 times the APTT of the blank control, human plasma. How it is done:
Test Example 2: Determination of In Vitro Anticoagulant Effect of the Compounds of the Present Invention on Human Blood
1. Experimental Materials
Plasma: Human blood was collected in blood collection tubes containing no anticoagulant, and then 3.8% sodium citrate (volume ratio 1:9) was added. The tubes were centrifuged at 2500 rpm for 10 minutes at room temperature, and then the plasma was collected and stored at −80° C.;
Reagents: APTT reagent (Activated partial thromboplastin time assay kit, SIEMENS, Art. No. B4218-1), calcium chloride solution;
(§1) Instrument: Coagulation instrument (SYSMEX, CA-500).
The divided plasma was melted at room temperature and mixed well. 10000 μM the test compound dissolved in 100% DMSO was diluted to 3000, 300, 200, 150, 75, 30, 10, 3, 0.3 μM with 100% DMSO, and the blank was 100% DMSO. The reagent, plasma, and compound were placed in corresponding positions in the coagulation instrument, and APTT detection of the compound was carried out.
Curve fitting was carried out by graphpad and CT2 was calculated, i.e., the concentration of the compound corresponding to 2 times the APTT of the blank control.

Data set [1] is described as follows: Pharmacokinetics assay in rats after intragastrical administration. The data set is classed as in vivo, Sprague-Dawley (SD) rats. As to conditions: both sexes, Sprague-Dawley, rat, plasma, po, SD rats, intragastric, 2 mg/kg; for Vd/F: read-out: Apparent Distribution Volume Vz/F; for AUC: read-out: Area Under Curve AUC; for CL/F: read-out: Clearance CLz/F; for half-life: read-out: Half-Life T½ (converted); for MRT: read-out: Mean Residence Time MRT; for Cmax: read-out: Plasma Concentration Cmax. An excerpt:
Test Example 3. Pharmacokinetics Assay of the Compounds of the Present Invention
Rats were used as test animals. […] The pharmacokinetic behavior of the compounds of the present invention was studied and evaluated in rats.
56 healthy adult Sprague-Dawley (SD) rats, half male and half female, were purchased from SINO-BRITSH SIPPR/BK LAB. ANIMAL LTD., CO, with License No.: SCXK (Shanghai) 2008-0016.
2.3 Preparation of the Test Compounds
A certain amount of the test compound was weighed, and added with 5% by volume of DMSO, 5% by volume of Tween 80 and 90% normal saline to prepare a 0.2 mg/mL colorless, clear and transparent solution.
After an overnight fast, SD rats were intragastrically administered at a dose of 2.0 mg/kg and an administration volume of 10.0 mL/kg.
Blood (0.2 mL) was taken from the orbital sinus before administration and at 0.5, 1.0, 2.0, 4.0, 6.0, 8.0, 11.0 and 24.0 hours after administration. The samples were stored in heparin anticoagulation tubes, and centrifuged for 10 minutes at 3500 rpm at 4° C. to separate the blood plasma. The plasma samples were stored at −20° C. The rats were fed 2 hours after administration.
The content of the test compound in the plasma of rats after intragastric administration of different concentrations of the drug was determined: 25 μL of rat plasma at each time after administration was taken and added with 30 μL (100 ng/mL) of the internal standard solution of camptothecin and 200 μL of acetonitrile, shaken vertically for 5 minutes, and centrifuged for 10 minutes (4000 rpm). 3.0 μL of the supernatant was taken from the plasma samples for LC/MS/MS analysis.
4. Results of Pharmacokinetic Parameters
Pharmacokinetic parameters of the compounds of the present invention in rats are shown below.

The nature of data set [2]: Pharmacokinetics assay in cynomolgus monkeys. The data set is classed as in vivo. The settings on record: male, cynomolgus monkey, plasma, po, intragastric, 15 mg/kg. An excerpt:
(§2) Test Example 4: Determination of APTT Value and Pharmacokinetic Assay in Cynomolgus Monkey
Cynomolgus monkeys were used as test animals. […] The pharmacokinetic behavior of the compounds of the present invention was studied and evaluated in the cynomolgus monkeys.
(§3) Six male cynomolgus monkeys (101, 102, 103, 201, 202 and 203) were purchased from Guangxi Xiongsen Primate Experimental Animal Breeding Development Co., Ltd.
(§4) Compounds of Example 5 and Example 108.
(§5) 4. Preparation of the Test Compounds
(§6) A certain amount of the test compound was weighed, and added with 2% by volume of DMSO, 78% by volume of PEG400 and 20% CMC-Na (0.5%) to prepare a 3.0 mg/mL colorless, clear and transparent solution.
(§7) After an overnight fast, cynomolgus monkeys were intragastrically administered at a dose of 15.0 mg/kg and an administration volume of 5.0 mL/kg.
7. Test Protocol of Pharmacokinetics Assay in Cynomolgus Monkeys
1.0 mL of blood was taken from the forelimb vein before administration and at 0.25, 0.5, 1, 2, 4, 6, 8, 12 and 24 hours after administration. The samples were stored in heparin anticoagulation tubes, and centrifuged for 10 minutes at 3500 rpm to separate the blood plasma. The plasma samples were stored at −80° C. The […] were fed 2 hours after administration.
The content of the test compound in the plasma of cynomolgus monkeys after intragastric administration of different concentrations of the drug was determined: 25 μL of cynomolgus monkey plasma at each time after administration was taken and added with 30 μL (100 ng/mL) of the internal standard solution of camptothecin and 225 μL of acetonitrile, shaken vertically for 5 minutes, and centrifuged for 10 minutes (4000 rpm). 1.0 μL of the supernatant was taken from the plasma samples for LC/MS/MS analysis.
7.2. Results of Pharmacokinetic Parameters in Cynomolgus Monkeys
Pharmacokinetic parameters of the compounds of the present invention in cynomolgus monkeys are shown below.

A short description of data set [3]: Determination of APTT value in cynomolgus monkeys. The data set is classed as in vivo. As to conditions: cynomolgus monkey, individual animals. The method, then:
as §2, §3, §4, §5, §6, §7
6. Test Protocol for Determination of APTT Value in Cynomolgus Monkeys
6.1 Experimental Materials
Reagents: APTT reagent (Activated partial thromboplastin time assay kit, SIEMENS, Art. No. B4218-1), PEG-400 and CMC-Na;
as §1
6.2 Collection and Processing of APTT Plasma Sample
Blood was taken before administration and at 1 hour, 2 hours, 4 hours, 8 hours and 12 hours after administration. About 1.8 mL of blood was taken through femoral vein puncture in each animal for each time. Anticoagulated sodium citrate was added. After the blood sample was collected, it was placed in a pre-labeled centrifuge tube, and the plasma was separated by centrifugation (centrifugation conditions: 3500 rpm, 10 minutes, 2-8° C.). The plasma was stored in a −80° C. refrigerator for APTT assay.
6.3 APTT Assay Results in Cynomolgus Monkeys

In data set [4] the target is Coagulation Factor XIa protease (Homo sapiens (Human), UniProt P03951). As to the kind of experiment: Inhibition of Factor XIa detected by absorption photometry. As to conditions: absorbance at 405 nm, 10 minutes at 37° C. The data set is classed as biochemical. Summed up:
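Compounds were serially diluted in 100% DMSO (200-0.002 μM dilution series) before addition to the wells. FXIa enzyme solution at 2.5 μg/ml and substrate solution at 2 mM were then added, both stock concentrations. After 10 min at 37° C., absorbance was read at 405 nm.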

Coagulation Factor XIa protease, sequence (P03951 388-625): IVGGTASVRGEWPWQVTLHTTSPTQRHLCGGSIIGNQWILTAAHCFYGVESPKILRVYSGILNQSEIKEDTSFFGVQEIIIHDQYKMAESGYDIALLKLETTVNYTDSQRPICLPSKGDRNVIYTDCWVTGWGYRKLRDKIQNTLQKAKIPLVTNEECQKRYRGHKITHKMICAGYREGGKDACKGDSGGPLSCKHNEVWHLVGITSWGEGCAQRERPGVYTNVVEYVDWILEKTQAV
Coagulation Factor XIa protease, sequence (P03951 19-387 partner): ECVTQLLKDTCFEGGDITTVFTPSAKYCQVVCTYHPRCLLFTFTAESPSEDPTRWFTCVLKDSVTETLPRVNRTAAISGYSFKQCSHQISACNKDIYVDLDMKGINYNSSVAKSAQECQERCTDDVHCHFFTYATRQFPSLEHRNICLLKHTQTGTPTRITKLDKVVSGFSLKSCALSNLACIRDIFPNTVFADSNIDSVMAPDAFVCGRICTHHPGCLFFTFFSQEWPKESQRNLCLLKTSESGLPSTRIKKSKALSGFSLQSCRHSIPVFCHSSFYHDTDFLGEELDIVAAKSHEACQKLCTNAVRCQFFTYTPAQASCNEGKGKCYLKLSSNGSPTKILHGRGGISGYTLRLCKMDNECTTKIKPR

`COc1cn([C@@H](Cc2ccccc2)C(=O)Nc2ccc(C(=O)O)cc2)c(=O)cc1-c1cc(Cl)ccc1C(C)=O` [Example 5, (S)-4-(2-(4-(2-acetyl-5-chlorophenyl)-5-methoxy-2-oxopyridin-1(2H)-yl)-3-phenylpropanamido)benzoic acid]: the “CT2, concentration doubling APTT” value with human blood (Table 2) was 2.0 µM. Moreover, the Vd/F in data set [1] is 4.98 ± 0.291 L/kg; in data set [2] (read-out: Apparent Distribution Volume Vz/F), 30.4 ± 12.6 L/kg. In addition, the AUC stood at 518 ± 63 ng·h/mL in data set [1] and 4950 ± 2880 ng·h/mL in data set [2] (read-out: Area Under Curve AUC). For the same compound, the CL/F amounted to 65.1 ± 8.1 mL/min/kg in data set [1] and 62 ± 32 mL/min/kg in data set [2] (read-out: Clearance CLz/F). Moreover, the half-life in data set [1] is 0.89 ± 0.08 h; in data set [2] (read-out: Half-Life T½ (converted)), 5.86 ± 1.1 h. In addition, the MRT in data set [1] turned out to be 6.64 ± 1.77 h; in data set [2] (read-out: Mean Residence Time MRT) it was 9.63 ± 0.78 h. Moreover, the Cmax worked out at 244 ± 77 ng/mL in data set [1] and 688 ± 560 ng/mL in data set [2] (read-out: Plasma Concentration Cmax). Further, the “APTT (sec) 1 hour” value in data set [3] (15.0 mg/kg intragastric, 1 hour after administration) was 36.8 s and 25.9 s. In addition, the “APTT (sec) 2 hours” value in data set [3] (15.0 mg/kg intragastric, 2 hours after administration) was 33.3 s and 31.4 s and 27.2 s. Besides, the “APTT (sec) 4 hours” value in data set [3] (15.0 mg/kg intragastric, 4 hours after administration) is 28.3 s and 26.1 s and 22.2 s. Further, in data set [3] (15.0 mg/kg intragastric, 8 hours after administration), the “APTT (sec) 8 hours” value is 27.3 s and 32.5 s and 24.8 s. The “APTT (sec) 12 hours” value in data set [3] (15.0 mg/kg intragastric, 12 hours after administration) is 28.6 s and 23.8 s and 23.9 s. Further, in data set [3] (baseline before 15.0 mg/kg intragastric dose), the “APTT (sec) Before Administration” value was 17.2 s and 17.3 s and 19.1 s.
On to `CNC(=O)c1ccc(NC(=O)[C@H](Cc2ccccc2)n2cc(OC)c(-c3cc(Cl)ccc3C(C)=O)cc2=O)cc1` [Example 13, (S)-4-(2-(4-(2-acetyl-5-chlorophenyl)-5-methoxy-2-oxopyridin-1(2H)-yl)-3-phenylpropanamido)-N-methylbenzamide], for which, in the data set on human blood (Table 2), the “CT2, concentration doubling APTT” value worked out at 6.0 µM. Besides, in data set [1], the Vd/F stood at 26.9 ± 14 L/kg, the AUC came out at 241 ± 168 ng·h/mL, the CL/F is 217 ± 151 mL/min/kg and the half-life was 1.67 ± 0.48 h. Further, in data set [1], the mean residence time MRT came out at 2.36 ± 1.05 h and the Cmax was 119 ± 78 ng/mL. The same compound displayed a 50% inhibitory concentration (IC50) in data set [4] of 0.046 µM.
For `COc1cn([C@@H](Cc2ccccn2)C(=O)Nc2ccc(C(=O)O)cc2)c(=O)cc1-c1cc(Cl)ccc1C(C)=O` [Example 80, (S)-4-(2-(4-(2-acetyl-5-chlorophenyl)-5-methoxy-2-oxopyridin-1(2H)-yl)-3-(pyridin-2-yl)propanamido)benzoic acid], the “CT2, concentration doubling APTT” value in the data set with human blood (Table 2) stood at 7.9 µM. In data set [1], the Vd/F is 15.8 ± 2.29 L/kg, the AUC stood at 158 ± 45 ng·h/mL, the CL/F is 222 ± 55.7 mL/min/kg and the half-life was 0.85 ± 0.14 h. For the same compound, in data set [1], the mean residence time (MRT) worked out at 1.85 ± 0.76 h and the Cmax came out at 126 ± 50 ng/mL. This compound also yielded a half-maximal inhibitory concentration (IC50) in data set [4] of 0.04 µM.
With `COc1cn([C@@H](CCOC(C)(C)C)C(=O)Nc2ccc(C(=O)O)cc2)c(=O)cc1-c1cc(Cl)ccc1C(C)=O` [Example 111, (S)-4-(2-(4-(2-acetyl-5-chlorophenyl)-5-methoxy-2-oxopyridin-1(2H)-yl)-4-(tert-butoxy)butanamido)benzoic acid], the “CT2, concentration doubling APTT” value with human blood (Table 2) is 3.2 µM. Also, in data set [1], the Vd/F came out at 36.7 ± 13.7 L/kg, the AUC was 378 ± 98 ng·h/mL, the CL/F was 94.1 ± 30.8 mL/min/kg and the half-life is 4.94 ± 2.33 h. Moreover, in data set [1], the MRT amounted to 4.41 ± 1.99 h and the Cmax came out at 252 ± 56 ng/mL. This compound showed an IC50 in data set [4] of 0.018 µM.
On to `CCC(=O)c1ccc(Cl)cc1-c1cc(=O)n([C@@H](CCOC(C)(C)C)C(=O)Nc2ccc3nccnc3c2)cc1OC` [Example 114, (S)-4-(tert-butoxy)-2-(4-(5-chloro-2-propionylphenyl)-5-methoxy-2-oxopyridin-1(2H)-yl)-N-(quinoxalin-6-yl)butanamide], for which, in the data set with human blood (Table 2), the “CT2, concentration doubling APTT” value is 3.6 µM. Further, in the data set on human blood (Table 3 comparison), the “CT2, concentration doubling APTT” value amounted to 2.9 µM. Besides, in the data set on human blood (human blood, from Table 3), the “CT2 value ratio, Example 114 versus comparative Example 2” value is listed as 4.5 times. Further, in data set [1], the Vd/F worked out at 24 ± 11.1 L/kg, the area under the curve (AUC) was 168 ± 102 ng·h/mL, the CL/F was 278 ± 182 mL/min/kg and the half-life was 1.11 ± 0.25 h. Besides, in data set [1], the MRT is 1.67 ± 0.23 h and the Cmax came out at 91.2 ± 51.3 ng/mL. The same compound showed an IC50 in data set [4] of 0.027 µM.
On to `COc1cn([C@H](CC2CCC2)C(=O)Nc2ccc(C(=O)O)cc2)c(=O)cc1-c1c(C(C)=O)ccc(Cl)c1F` [Example 160, (R)-4-(2-(4-(6-acetyl-3-chloro-2-fluorophenyl)-5-methoxy-2-oxopyridin-1(2H)-yl)-3-cyclobutylpropanamido)benzoic acid], for which, in the data set on human blood (Table 2), the “CT2, concentration doubling APTT” value was 3.8 µM. Further, in data set [1], the Vd/F turned out to be 34.6 ± 4.13 L/kg, the exposure (AUC) was found to be 365 ± 52 ng·h/mL, the CL/F is 92.5 ± 12.3 mL/min/kg and the half-life was 4.34 ± 0.35 h. Moreover, in data set [1], the MRT stood at 8.3 ± 1.33 h and the Cmax was 53.9 ± 20.3 ng/mL. Besides, the midpoint of inhibition in data set [4], the IC50, lay at 0.068 µM.
